In one series the test system is Podosphaera leucotricha. The series is described as follows: Podosphaera test (apple)/protective. It counts as in vivo. The note with it: 240 h, protective, application rate 100 g/ha, evaluation 10 days after inoculation, read-out: % efficacy. Here is the method: (§1) To produce a suitable preparation of active compound, 1 part by weight of active compound is mixed with the stated amounts of solvent and emulsifier, and the concentrate is diluted with water to the desired concentration.
To test for protective activity, young plants are sprayed with the preparation of active compound at the stated application rate. After the spray coating has dried on, the plants are inoculated with an aqueous spore suspension of the apple mildew pathogen Podosphaera leucotricha. The plants are then placed in a greenhouse at approximately 23° C. and a relative atmospheric humidity of approximately 70%.
(§2) Evaluation is carried out 10 days after the inoculation. 0% means an efficacy which corresponds to that of the control, whereas an efficacy of 100% means that no infection is observed.

A further series relates to Sphaerotheca fuiginea. The series is described as follows: Sphaerotheca test (cucumber)/protective. The series is classed as in vivo. The note with it: Cucumis sativus, 240 h, protective, application rate 100 g/ha, evaluation 10 days after inoculation, read-out: % efficacy. Here is the method: as §1
To test for protective activity, young plants are sprayed with the preparation of active compound at the stated application rate. After the spray coating has dried on, the plants are inoculated with an aqueous spore suspension of Sphaerotheca fuiginea. The plants are then placed in a greenhouse at approximately 23° C. and a relative atmospheric humidity of approximately 70%.
as §2

In another series the test system is Alternaria solani. Kind of series: Alternaria test (tomato)/protective. It counts as in vivo. Conditions: protective, application rate 750 g/ha, evaluation 7 days after inoculation. Here is the method:
as §1
To test for protective activity, young tomato plants are sprayed with the preparation of active compound at the stated application rate. 1 day after the treatment, the plants are inoculated with a spore suspension of Alternaria solani and then remain at 100% rel. humidity and 20° C. for 24 h. The plants then remain at 96% rel. atmospheric humidity and a temperature of 20° C.
Evaluation is carried out 7 days after the inoculation. 0% means an efficacy which corresponds to that of the control, whereas an efficacy of 100% means that no infection is observed.

Series [1] deals with Gloeophyllum trabeum, Coniophora puteana, Poria placenta, Lentinus tigrinus and Coriolus versicolor. The series is described as follows: Inhibition test on giant colonies of Basidiomycetes. The series is classed as cell-based. The note with it: 6 ppm active compound in malt extract peptone agar, 26° C.; read-out: % efficacy (percent inhibition of hyphal growth). Here is the method:
Inhibition Test on Giant Colonies of Basidiomycetes Mycelium sections were removed from colonies of Gloeophyllum trabeum, Coniophora puteana, Poria placenta, Lentinus tigrinus and Coriolus versicolor and incubated on an agar medium containing malt extract peptone at 26° C. The inhibition of hyphal growth on active-compound-containing media was compared with the longitudinal growth on media without an addition of active compound and rated as percent inhibition.

The next series concerns Puccinia recondita. Kind of series: Puccinia test (wheat)/protective. It counts as in vivo. Conditions: protective, application rate 250 g/ha, evaluation 10 days after inoculation. Here is the method: as §1
To test for protective activity, young plants are sprayed with the preparation of active compound at the stated application rate. After the spray coating has dried on, the plants are sprayed with a conidia suspension of Puccinia recondita. The plants remain in an incubation cabin at 20° C. and 100% relative atmospheric humidity for 48 hours.
The plants are then placed in a greenhouse at a temperature of approximately 20° C. and a relative atmospheric humidity of 80% to promote the development of rust pustules.
as §2

Another series concerns Venturia inaequalis. The series is described as follows: Venturia test (apple)/protective. The series is classed as in vivo. Conditions: 288 h, protective, application rate 100 g/ha, evaluation 12 days after inoculation, read-out: % efficacy. As to the method:
To produce a suitable preparation of active compound, 1 part by weight of active compound is mixed with the stated amount of solvent and emulsifier, and the concentrate is diluted with water to the desired concentration.
To test for protective activity, young plants are sprayed with the preparation of active compound at the stated application rate. After the spray coating has dried on, the plants are inoculated with an aqueous conidia suspension of the apple scab pathogen Venturia inaequalis and then remain in an incubation cabin at approximately 20° C. and 100% relative atmospheric humidity for 1 day.
The plants are then placed in a greenhouse at approximately 21° C. and a relative atmospheric humidity of approximately 90%.
Evaluation is carried out 12 days after the inoculation. 0% means an efficacy which corresponds to that of the control, whereas an efficacy of 100% means that no infection is observed.

Series [2] can be described thus: logP by HPLC on reversed-phase column (C 18), EEC Directive 79/831 Annex V.A8. It counts as physicochemical. The note with it: reversed-phase HPLC column (C 18); acidic range, pH 2.3, 0.1% aqueous phosphoric acid and acetonitrile, 43° C. (marked a). Here is the method:
The logP values given in the Preparation Examples and Tables above were determined in accordance with EEC Directive 79/831 Annex V.A8 by HPLC (High Performance Liquid Chromatography) on a reversed-phase column (C 18). Temperature: 43° C.
In the acidic range, the determination was carried out at pH 2.3 using the mobile phases 0.1% aqueous phosphoric acid and acetonitrile; linear gradient from 10% acetonitrile to 90% acetonitrile (marked ^a) in the Table).
In the neutral range, the determination was carried out at pH 7.5 using the mobile phases 0.01 molar aqueous phosphate buffer solution and acetonitrile; linear gradient from 10% acetonitrile to 90% acetonitrile (marked ^b) in the Table).

The structures appear in SMILES notation.

Regarding `CO/N=C/c1ccc(-c2ccccc2NC(=O)c2c(C)nn(C)c2F)cc1` [Example 1, 5-fluoro-N-{4′-[(methoxyimino)methyl]-1,1′-biphenyl-2-yl}-1,3-dimethyl-1H-pyrazole-4-carboxamide], the pest or weed control at 100 g/ha in the series on Podosphaera leucotricha, with Sphaerotheca fuiginea and in the series with Venturia inaequalis was 100% throughout. Further, the “% efficacy” value with Alternaria solani is reported as 95%; with Puccinia recondita it was 100%. Further, the Emax at 6 ppm in series [1] was 100%.

Regarding `CO/N=C/c1ccc(-c2cc(F)cc(F)c2NC(=O)c2c(C)nn(C)c2F)cc1` [Example 2, N-{3,5-difluoro-4′-[(methoxyimino)methyl]-1,1′-biphenyl-2-yl}-5-fluoro-1,3-dimethyl-1H-pyrazole-4-carboxamide], in the series on Alternaria solani, the “% efficacy” value was 90%.

Consider `CO/N=C/c1ccc(-c2ccccc2NC(=O)c2c(C)nn(C)c2F)cc1F` [Example 3, 5-fluoro-N-{3′-fluoro-4′-[(methoxyimino)methyl]-1,1′-biphenyl-2-yl}-1,3-dimethyl-1H-pyrazole-4-carboxamide], for which the Emax at 6 ppm in series [1] worked out at 100%. Moreover, the “% efficacy” value in the series on Puccinia recondita is on record as 100%.

For `CO/N=C(\C)c1ccc(-c2ccccc2NC(=O)c2c(C)nn(C)c2F)cc1` [Example 4, 5-fluoro-N-[4′-(N-methoxyethaneimidoyl)-1,1′-biphenyl-2-yl]-1,3-dimethyl-1H-pyrazole-4-carboxamide], the “% efficacy” value in the series on Alternaria solani worked out at 90%. In addition, in series [1], the Emax at 6 ppm came to 100%.

Regarding `CO/N=C/c1cccc(-c2ccccc2NC(=O)c2c(C)nn(C)c2F)c1` [Example 5], the “% efficacy” value in the series on Alternaria solani is on record as 90%.

By chromatographic logP is commonly meant lipophilicity estimated from chromatographic retention. In series [2], `CO/N=C(\C)c1cccc(-c2ccccc2NC(=O)c2c(C)nn(C)c2F)c1` [Example 7] had a chromatographic logP of 3.2. The “% efficacy” value with Alternaria solani is 100%.

On to `CO/N=C/c1ccc(-c2cccc(F)c2NC(=O)c2c(C)nn(C)c2F)cc1` [Example 9], for which the chromatographic logP in series [2] turned out to be 2.51. Besides, the Emax at 6 ppm in series [1] was 100%. Besides, the “% efficacy” value with Puccinia recondita is 100%.

(Values after US7348350B2, “Pyrazolyl biphenyl carboxamides and the use thereof for controlling undesirable microorganisms” (Bayer CropScience AG, priority 2000, dated 2008).)
